This test deals with C. acetobutylicum ATCC 824. Description: Germination and sequential batch cultures of C. acetobutylicum ATCC 824 grown at 37° C. (growth OD600, final pH, ceric ion reactive compounds). It is filed as cell-based, Clostridium acetobutylicum. The protocol: Clostridium acetobutylicum ATCC 824 and C. beijerinckii NCIMB 8052 are available from several commercial microbial culture collections including the American Type Culture Collection (ATCC), Manassas, Va., USA. The strain grown at 30 C or 37 C in YE broth, which contained, per liter: 5.0 g yeast extract, 2.5 g casamino acids, 1.0 g L-asparagine, 0.5 g cysteine·HCl, 56 mg K2HPO4, 56 mg KH2PO4, 82 mg anhydrous MgSO4, 8 mg FeSO4.H2O, 6 mg MnSO4.H2O and 10 g glucose. Alternatively, strains were grown in YEPG broth, which was identical to YE expect that K2HPO4 and KH2PO4 were increased to 145 mg/L each and glucose was increased to 60 g/L. The pH of the media was adjusted to 7.2 using 45% KOH prior to sterilization by autoclaving. Media were solidified by addition of 1.5% Bacteriological Agar, Acumedia Manufacturers, Inc., Lansing, Mich. All cultures were grown in anaerobic conditions using the AnaeroPack System, Mitsubishi Gas Chemical Co., Inc., Japan, and GasPak EZ Gas Generating Sachets, Becton, Dickinson and Co., Sparks, Md. Spore stocks were kept at room temperature on agar-solidified media and were activated by suspending spores in 0.5 mL to 1.0 mL of medium followed by heating for 10 min at 80 C before inoculation into growth medium.
Growth of bacterial cultures was measured spectrophotometrically using optical density at 600 nm and pH of cell-free culture supernatants was measured using a hand-held Shindengen ISFET pH Meter KS501, Shendengen Electric Manufacturing Co., Ltd., Bannockburn, Ill.
Total alcohols in cell-free culture supernatants were measured using a modification of a colorimetric method based on ceric ammonium nitrate (Reid and Truelove, 1952). The ceric ion reagent was prepared by adding 1.3 mL of concentrated nitric acid to 40 mL of distilled water, then 10.96 g of ceric ammonium nitrate was dissolved in the dilute nitric acid solution and the solution was brought to a final volume of 50 mL. For the assay, […] of butanol standard or culture supernatant was mixed with […] distilled water in a disposable plastic cuvette followed by addition of […] of the ceric ion reagent. The sample was mixed by inverting the cuvette six times then exactly two minutes later the optical density at 500 nm wavelength was measured. The concentration of total alcohols was determined by comparison with a standard curve prepared by using butanol diluted in distilled water.
Spores of C. acetobutylicum ATCC 824 were germinated and grown overnight at 37 C under anaerobic conditions in YEPG medium that either contained 50 nM of peptide SEQ ID NO: 143 or no added peptide. After about 24 h of growth, […] of the untreated culture was transferred (transfer 1) to each of two flasks that contained 10 mL of YEPG with either no treatment or with 50 nM peptide SEQ ID NO: 143. At the same time, 10 μL of the culture that was germinated in the presence of peptide SEQ ID NO: 143 was also transferred to 10 mL of YEPG that contained 50 nM of peptide SEQ ID NO: 143. Thereafter, […] of each culture was transferred, at the same time, every 24-48 h to 10 mL of fresh YEPG that contained the same peptide treatment or no treatment. Each culture was stopped after 72 hours if incubation and optical density, pH and ceric ion reactive chemicals were measured. Sequential batch culturing was continued through 3 transfers at which point the untreated culture and the culture that was germinated and transferred in 50 nM of peptide were still growing, while the culture that was treated with peptide after germination had stopped growing (Table 15 and FIG. 7).

Setting [1] is: 50 nM added after germination, transfer 1, 72 h culture.
Setting [2] is: 50 nM added after germination, transfer 2, 72 h culture.
Where [3] appears, read: 50 nM added after germination, transfer 3, 72 h culture.
The mark [4] stands for this setting: 50-50 (germinated and transferred in 50 nM), transfer 1, 72 h culture.
The mark [5] stands for this setting: 50-50 (germinated and transferred in 50 nM), transfer 2, 72 h culture.
Where [6] appears, read: 50-50 (germinated and transferred in 50 nM), transfer 3, 72 h culture.
Where [7] appears, read: 50-50 (spores germinated in 50 nM peptide), transfer 0 (germinated culture), 72 h culture.

SYPGWSW [peptide SEQ ID NO: 143]: the “Final pH” value is, setting by setting: under setting [1], 4.4; under setting [2], 6.0; under setting [3], 5.5; under setting [4], 4.5; under setting [5], 3.8; under setting [6], 4.6. Further, under setting [7], the “Final pH” value was 4.1. Moreover, the “Optical density at 600 nm” value reads like this: under setting [1], 1.891; under setting [2], 0.011; under setting [3], 0.100; under setting [4], 1.715; under setting [5], 1.858; under setting [6], 1.485. In addition, the “Optical density at 600 nm” value under setting [7] is on record as 2.121. The “Optical density of ceric ion reactive compounds measured at 500 nm” value is recorded as 0.116 under setting [1]; 0.000 under setting [2]; 0.001 under setting [3]; 0.152 under setting [4]; −0.063 under setting [5]; 0.138 under setting [6]. Also, the “Optical density of ceric ion reactive compounds measured at 500 nm” value under setting [7] was determined as 0.028. In addition, the “Growth in sequential transfers” value (50 nM added after germination, untreated survived through 3 transfers) was “did not grow beyond the first transfer”. Moreover, where the note is “50 nM peptide treatment during germination and growth”, the “Culture degeneration in terms of production of total alcohols” value is “prevented culture degeneration”.

The record behind these values is patent publication US20150031102A1, “METHODS AND COMPOSITIONS FOR ENHANCED PRODUCTION OF BUTANOL BY CLOSTRIDIA” (Butrolix LLC, priority 2012, published 2015).
